Measurements from PMC3299254 (International Journal of Microbiology, 2012).
Where two headings read alike, the source gives them in different places. No end group written: not given here.

Experiments:
human erythrocytes = assay: Minimum hemolytic concentration (MHC); type: cell-based
Protocol: The MHCs were measured by the method as described in Chen et al.: peptides were added to 1% human erythrocytes in phosphate-buffered saline (0.08 mol/L NaCl, 0.043 mol/L Na2HPO4, 0.011 mol/L KH2PO4) and then kept at 37°C for 1 h in microtiter plates. The supernatants were collected by centrifugation (800 g), and the OD562 of each supernatant was determined. We chose a 0.1% Triton X-100 solution as the positive control because this solution causes the total release of hemoglobin. We defined the MHC as the highest peptide concentration that caused no detectable release of hemoglobin (the ratio of the OD562 for the peptide solution to the OD562 for the positive control should be less than 1%).

[1] = system: Pseudomonas aeruginosa CMCC10104; type: cell-based; conditions: for MIC: Pseudomonas aeruginosa CMCC10104, microtiter dilution, LB medium without salt, 10^4-10^5 CFU/mL, 37°C, 24 h, OD620, Table 2
Protocol: (§1) All strains were cultured on Mueller-Hinton medium.

[2] = Circular dichroism, percentage helicity; type: physicochemical; conditions: CD, 100 μM peptide, 10 mM sodium phosphate pH 7.5, 50% trifluoroethanol
Protocol: CD spectra were obtained with a Jasco J-710 instrument (Jasco, Tokyo, Japan) utilizing quartz cells with a 2 mm path length and peptide concentrations of 100 μM in a 10 mM sodium phosphate buffer with a pH of 7.5 containing 50% trifluoroethanol. Each spectrum was obtained from an average of 5 pairs of duplicates, and the percentage helicity of each peptide was determined.
The hydrophobic moments were determined with the HeliQuest web server, which can be used to evaluate amphipathicity. The percent helix values were determined based on CD spectra.

[3] = system: Micrococcus luteus CMCC28001; conditions: microtiter dilution, 37°C, 24 h, OD620
Text: (§2) Twenty-two clinical isolates and night standard laboratory strains were used in this study: 4 Acinetobacter baumannii, 4 Pseudomonas aeruginosa, 3 Staphylococcus epidermidis, and 6 Klebsiella pneumonia (Changhai Hospital, Shanghai, China); 5 methicillin-resistance Staphylococcus aureus (Ruijin Hospital, Shanghai, China); Staphylococcus aureus CMCC26003; Bacillus subtilis DB430;Bacillus pumilus CMCC63202; Micrococcus luteus CMCC28001; E. coli ATCC8099; Klebsiella pneumoniae CMCC46117;Salmonella paratyphi B CMCC50094; Pseudomonas aeruginosa CMCC10104; Micrococcus S1.634. In addition, Pseudomonas aeruginosa CMCC10104 was used during the design of the peptides for evaluating antimicrobial activities. All strains were cultured on Mueller-Hinton medium.
(§3) The antibacterial activities of the different peptides were evaluated using the minimum inhibitory concentration (MIC). The process followed the standard microtiter dilution method in LB medium without salt. Briefly, bacteria were grown overnight in LB at 37°C and diluted in the same medium. Then, 100 μL of the medium was dispensed into each well of a 96-well plate. The number of bacteria was between 10^4 and 10^5 CFU/mL. Serial dilutions of peptides were performed consecutively in each well in 10 μL. Plates were incubated at 37°C for 24 h; then, the OD620 was measured to determine the MIC of each peptide.

[4] = system: Staphylococcus aureus CMCC26003; conditions: microtiter dilution, 37°C, 24 h, OD620
Text: as §2, §3

E. coli ATCC8099 = conditions: microtiter dilution, 37°C, 24 h, OD620
Text: as §2, §3

[5] = system: Gram-positive and Gram-negative bacteria and 22 clinical isolates; conditions: overall statement
Text: as §2, §3

Bacillus subtilis DB430 = conditions: microtiter dilution, 37°C, 24 h, OD620
Text: as §2, §3

MRSA clinical isolates = conditions: range over 5 clinical MRSA isolates
Text: as §2, §3

[6] = system: Pseudomonas aeruginosa clinical isolates; conditions: range over 4 clinical isolates
Text: as §2, §3

[7] = system: Salmonella paratyphi B CMCC50094; conditions: microtiter dilution, 37°C, 24 h, OD620
Text: as §2, §3

[8] = system: Bacillus pumilus CMCC63202; conditions: microtiter dilution, 37°C, 24 h, OD620
Text: as §2, §3

[9] = system: Klebsiella pneumonia clinical isolates; conditions: range over 6 clinical isolates
Text: as §2, §3

[10] = system: Staphylococcus epidermidis clinical isolates; conditions: range over 3 clinical isolates
Text: as §2, §3

[11] = system: Klebsiella pneumoniae CMCC46117; conditions: microtiter dilution, 37°C, 24 h, OD620
Text: as §2, §3

[12] = system: Soluble wall Micrococcus S1.634; conditions: microtiter dilution, 37°C, 24 h, OD620
Text: as §2, §3

[13] = system: Acinetobacter baumannii clinical isolates; type: cell-based; conditions: microtiter dilution, 37°C, 24 h, OD620
Protocol: as §1

[14] = 1% human erythrocytes in PBS, 37°C, 1 h, OD562, highest concentration with no detectable hemoglobin release (<1% of 0.1% Triton X-100)
[15] = MHC/MIC ratio, MHC human erythrocytes, MIC Pseudomonas aeruginosa

| Substance | MHC (human erythrocytes; [14]) | Therapeutic index [1, 15] | MIC [1] | also measured |
| --- | --- | --- | --- | --- |
| KWKSFIKKLTSKFLHSANKF-NH2 [Peptide N18, S16 derivative by single amino acid substitution] | >500 µg/mL | 80 | 6.25 µg/mL | %Helix [2]: 37.2% |
| KWKSFINKLTSKFLHSAKKF-NH2 [Peptide N7] | >500 µg/mL | 40 | 12.5 µg/mL | – |
| KWKSFIKKSTSKFLHSAKKF-NH2 [Peptide S9] | >500 µg/mL | 10 | 50 µg/mL | – |
| KWNSFIKKLTSKFLHSAKKF-NH2 [Peptide N3] | – | – | 12.5 µg/mL | – |
| KWKSFIKKLTSKFLHLAKKF-NH2 [CP-P] | 250 µg/mL | 20 | 12.5 µg/mL | – |
| KWKSFKKKLTSKFLHSAKKF-NH2 [Peptide K6] | – | – | 12.5 µg/mL | – |
| KFKSFIKKLTSKFLHSAKKF-NH2 [Peptide F2] | 250 µg/mL | 20 | 12.5 µg/mL | – |
| KWKSFIKKRTSKFLHSAKKF-NH2 [Peptide R9] | – | – | >50 µg/mL | – |
| KWKSFIKKLTKKFLHSAKKF-NH2 [Peptide K11] | – | 320 | 1.6 µg/mL | MIC [3]: 2 µg/mL; MIC [4]: 0.5 µg/mL; MIC (E. coli ATCC8099): 0.5 µg/mL; MICs [5]: less than 10 μg/mL; MIC (Bacillus subtilis DB430): 2 µg/mL; MIC (MRSA clinical isolates): 0.25−4 μg/mL; MIC [6]: 1.0−8.0 μg/mL; MIC [7]: 2 µg/mL; MIC [8]: 0.5 µg/mL; MIC [9]: 0.5−4.0 μg/mL; MIC [10]: 0.5−8 μg/mL; MIC [11]: 2 µg/mL; MIC [12]: 1 µg/mL; MIC ([13]; clinical isolate b-01): 0.8 µg/mL; MIC ([13]; clinical isolate b-02): 3.125 µg/mL; MIC ([13]; clinical isolate b-04): 1.6 µg/mL |
| KWKSFIKKLLSKFLHSAKKF-NH2 [Peptide L10] | <125 µg/mL | 10 | 12.5 µg/mL | – |
| KWKSFIKKLTDKFLHSAKKF-NH2 [Peptide D11] | >500 µg/mL | 20 | 25 µg/mL | – |
| KWKSFIKKLASKFLHSAKKF-NH2 [Peptide A10, S16 derivative by single amino acid substitution] | 250 µg/mL | 20 | 12.5 µg/mL | %Helix [2]: 72.5% |
| KWKSFIKKAKTSFLHSAKKF-NH2 [Peptide A9] | >500 µg/mL | 20 | 25 µg/mL | – |
| KWKLFKKIPKFLHLAKKF-NH2 [Peptide P18, reference compound] | – | – | 25 µg/mL | MHC (human erythrocytes): 250 µg/mL; MIC ([13]; clinical isolate b-01): 6.25 µg/mL; MIC ([13]; clinical isolate b-02): 25 µg/mL; MIC ([13]; clinical isolate b-03): 12.5 µg/mL; MIC ([13]; clinical isolate b-04): 12.5 µg/mL; Therapeutic index ([1]; CMCC10104, 24 h): 10 |
| KWKSFIKKLTSKKLHSAKKF-NH2 [Peptide K13] | – | – | >50 µg/mL | – |
| KWKSFIKKLTLKFLHSKKKF-NH2 [Peptide L11, S16 derivative by single amino acid substitution] | – | – | >50 µg/mL | – |
| KWKSFIKKLTSKFLHSAKKF-NH2 [Peptide S16] | >500 µg/mL | 160 | 3.125 µg/mL | MIC ([13]; clinical isolate b-01): 3.125 µg/mL; MIC ([13]; clinical isolate b-02): 6.25 µg/mL; MIC ([13]; clinical isolate b-03): 6.25 µg/mL; MIC ([13]; clinical isolate b-04): 3.125 µg/mL |
| KWKSFIKKLTSKFLHSADKF-NH2 [Peptide D18] | >500 µg/mL | 20 | 25 µg/mL | – |
| KWKSFIKKLTSKFLHSAKKN-NH2 [Peptide N20] | >500 µg/mL | 80 | 6.25 µg/mL | – |
| KWKSFIKKLTSKFLHSKKKF-NH2 [Peptide K17] | >500 µg/mL | 40 | 12.5 µg/mL | – |
| KWKSFIKKLTSKALHSAKKF-NH2 [Peptide A13, S16 derivative by single amino acid substitution] | >500 µg/mL | 80 | 6.25 µg/mL | %Helix [2]: 45.9% |
| KWKSFIKKKTSKFLHSAKKF-NH2 [Peptide K9] | – | – | >50 µg/mL | – |
